Measurements as given in US20250144164A1, “COMPOSITIONS, METHODS, AND MEDICAL COMPOSITIONS FOR TREATMENT OF AND MAINTAINING THE HEALTH OF THE LIVER” (priority 2023, published 2025).

Test system: CCl4-induced hepatotoxicity model
Test: Carbon tetrachloride (CCl4)-induced hepatotoxicity model, serum ALT and survival
Assay type: in vivo, ICR/CD-1 mice
Conditions: CCL4 25 μl/kg; dose 50 mg/kg

C=CCc1cc(OC)c2c(c1)OCO2 [Myristicin]
% Change (inhibition in serum ALT): 99.7%
